Data reported in US7625948B2, “Ester compound and medicinal use thereof” (Japan Tobacco Inc., priority 2002, dated 2009).
Like-named read-outs stand apart in the source and are kept apart here.

What was measured:
HepG2 cells = test: Test Example 2: inhibition of apolipoprotein B secretion from HepG2 cells, ELISA (also used for metabolites in Test Example 8); type: cell-based; settings: Homo sapiens
In short: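 HepG2 cells cultured 24 h, then exposed 24 h to compounds or metabolites in medium with 0.5% DMSO. Secreted apo B in supernatant quantified by sandwich ELISA (HRP, ABTS, 405 nm) against purified human apo B standard; % inhibition vs DMSO group, IC50 derived.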

[1] = target: T1, Microsomal triglyceride transfer protein (MTP) from bovine liver (Bos taurus, UniProt P55156); test: Test Example 1: inhibition of interliposomal triglyceride (TG) transfer activity by MTP (also used for metabolites in Test Example 8); type: biochemical
T1 construct: from tissue; host or cells: bovine liver
T1 sequence (P55156 12-887): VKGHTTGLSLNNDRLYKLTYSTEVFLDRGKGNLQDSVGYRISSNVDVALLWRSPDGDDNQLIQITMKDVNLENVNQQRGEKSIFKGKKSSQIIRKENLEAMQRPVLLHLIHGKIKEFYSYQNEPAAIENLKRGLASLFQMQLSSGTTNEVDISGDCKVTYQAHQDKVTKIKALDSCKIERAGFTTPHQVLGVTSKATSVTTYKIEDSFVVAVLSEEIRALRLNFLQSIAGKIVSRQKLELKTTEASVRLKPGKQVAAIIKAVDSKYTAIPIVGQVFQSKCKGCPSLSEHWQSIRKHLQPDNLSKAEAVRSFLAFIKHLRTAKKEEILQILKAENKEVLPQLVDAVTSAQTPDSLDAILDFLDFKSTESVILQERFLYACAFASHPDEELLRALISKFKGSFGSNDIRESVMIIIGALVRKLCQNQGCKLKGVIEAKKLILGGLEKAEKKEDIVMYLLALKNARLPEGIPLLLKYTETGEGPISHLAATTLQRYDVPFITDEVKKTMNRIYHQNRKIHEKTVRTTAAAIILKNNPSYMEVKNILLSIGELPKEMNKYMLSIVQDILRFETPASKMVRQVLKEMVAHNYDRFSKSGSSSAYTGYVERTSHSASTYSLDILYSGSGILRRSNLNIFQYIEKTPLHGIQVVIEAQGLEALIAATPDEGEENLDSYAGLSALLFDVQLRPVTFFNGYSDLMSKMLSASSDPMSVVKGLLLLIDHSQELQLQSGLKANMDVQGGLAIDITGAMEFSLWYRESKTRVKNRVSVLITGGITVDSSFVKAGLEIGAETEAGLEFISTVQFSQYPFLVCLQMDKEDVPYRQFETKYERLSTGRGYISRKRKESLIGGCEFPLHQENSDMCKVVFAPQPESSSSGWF
T1 sequence (P05307 21-510 partner): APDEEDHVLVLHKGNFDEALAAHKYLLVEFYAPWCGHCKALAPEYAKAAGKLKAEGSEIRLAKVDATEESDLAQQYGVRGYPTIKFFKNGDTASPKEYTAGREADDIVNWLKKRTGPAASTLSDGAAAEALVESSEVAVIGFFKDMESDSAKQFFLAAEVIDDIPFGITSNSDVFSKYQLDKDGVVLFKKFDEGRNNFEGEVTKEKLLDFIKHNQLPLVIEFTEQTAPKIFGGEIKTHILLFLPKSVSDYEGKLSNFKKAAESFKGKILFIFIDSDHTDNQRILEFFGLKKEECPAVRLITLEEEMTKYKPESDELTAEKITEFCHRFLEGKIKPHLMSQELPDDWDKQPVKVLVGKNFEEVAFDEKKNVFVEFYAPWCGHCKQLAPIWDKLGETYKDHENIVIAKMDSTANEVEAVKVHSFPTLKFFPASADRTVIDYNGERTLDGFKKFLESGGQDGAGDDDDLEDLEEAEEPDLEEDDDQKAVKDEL
Experimental: Inhibition of Interliposomal Triglyceride (TG) Transfer Activity by MTP
Microsomal triglyceride transfer protein (MTP) from bovine liver was partially purified in such a way described below. A buffer (50 mM Tris, 250 mM sucrose, 1 mM EDTA, 0.02% NaN3 (pH 7.4)) for making a homogenate preparation was added to bovine liver, and the mixture was homogenated under ice-cooling, then centrifuged at 10,000×g (4° C., 30 minutes). The supernatant was adjusted to pH 5.1 with hydrochloric acid, and stirred for 30 minutes. The solution was further centrifuged at 10,000×g (4° C., 30 minutes), and 1 mM Tris buffer was added to the precipitated residue, and the mixture was adjusted to pH 8.6 with sodium hydroxide. After addition of 2.7M ammonium sulfate solution, the mixture was stirred for 30 minutes, then centrifuged at 10,000×g (4° C., 40 minutes). The resulting supernatant was served as a crude extraction fraction of MTP and stored at −80° C. under freezing. In its practical use, the crude extraction fraction of MTP was purified by column chromatography on diethylaminoethyl (DEAE) Sepharose using FPLC (Fast Performance Liquid Chromatography) system, and the purified MTP was used for the test.
Small unilamellar-vesicle (SUV) liposome (donor, 0.25 mol % triolein, 5 mol % cardiolipin) labeled with ^14C-triolein and non-labeled SUV liposome (acceptor, 0.25 mol % triolein) were prepared. A fixed amount of donor and acceptor, and MTP were mixed with a sample dissolved in DMSO or with DMSO. The mixture was incubated in a 15 mM Tris hydrochloride buffer (pH 7.4) containing 40 mM sodium chloride, 1 mM EDTA (ethylenediaminetetraacetic acid), 0.02% NaN3 and 0.5% bovine serum albumin at 37° C. for one hour. After completion of the incubation, a suspension of DEAE cellulose (50% v/v) in 15 mM Tris hydrochloride buffer (pH 7.4) was added to the above solution, and the mixture was centrifuged to separate the donor and the acceptor. The radioactivity in the acceptor was measured by liquid scintillation counter. The value obtained by subtracting the radioactivity in the blank from the amount of radioactivity in the acceptor of a DMSO group was determined as MTP-mediated TG transfer activity, and it was compared with the value obtained by subtracting the radioactivity in the blank from the radioactivity in a sample group. The blank was prepared by adding 15 mM Tris-HCl buffer (pH 7.4) in place of MTP. Inhibition rate (%) was calculated from the values obtained according to the following equation.
Inhibition rate (%)=100×(1 minus ((radioactivity of sample group minus radioactivity of blank group)/(radioactivity of DMSO group minus radioactivity of blank group))).
50% Inhibition rate (IC50) was determined on the basis of the above equation.
Inhibitory Activity on MTP and apo B Secretion Inhibition by Metabolites
In a similar manner to Test Examples 1 and 2, the activity of metabolites was assayed.

[2] = 24 hours, apo B in supernatant by ELISA, read-out: Test Example 2 Inhibition of apo B secretion IC50
[3] = MTP-mediated 14C-triolein transfer between liposomes, 37° C., one hour, read-out: Test Example 1 MTP inhibition IC50
[4] = main metabolites of the compounds (Test Example 8), read-out: Inhibition of apo B secretion IC50
[5] = main metabolites of the compounds (Test Example 8), read-out: MTP inhibition IC50

| IC50 (HepG2 cells; [2]) | IC50 [1, 3] | IC50 (HepG2 cells; [4]) | IC50 [1, 5] | Structure (SMILES) |
| --- | --- | --- | --- | --- |
| 720 nM | 8.6 nM |  |  | O=C(Cc1ccc(NC(=O)c2ccccc2-c2ccccc2)cc1)OCC(C(=O)NCC(F)(F)F)(C(=O)NCC(F)(F)F)c1ccccc1 [Example 1-32] |
| 55 nM | 82 nM |  |  | CCOC(=O)C(COC(=O)Cc1ccc(NC(=O)c2ccccc2-c2ccc(C(F)(F)F)cc2)cc1)(C(=O)OCC)C1CCCC1 [Example 1-14] |
| 26 nM | 2.46 nM |  |  | O=C(N[C@H]1CC[C@@H](C(=O)OCCC2(C(=O)NCC(F)(F)F)c3ccccc3-c3ccccc32)CC1)c1ccccc1-c1ccc(C(F)(F)F)cc1 [Example 7-2] |
| 160 nM | 0.66 nM |  |  | CCNC(=O)C(COC(=O)Cc1ccc(OC(=O)c2ccccc2-c2ccc(C(F)(F)F)cc2)cc1)(C(=O)NCC)c1ccccc1 [Example 1-39] |
| 2.1 nM | 6.9 nM |  |  | CCOC(=O)C(COC(=O)Cc1ccc(NC(=O)c2ccccc2-c2ccc(C(F)(F)F)cc2)c(C(F)(F)F)c1)(C(=O)OCC)c1ccccc1 [Example 1-40] |
| 28 nM | 27 nM |  |  | CC(C)CCNC(=O)C(COC(=O)Cc1ccc(NC(=O)c2ccccc2-c2ccc(C(F)(F)F)cc2)cc1)(C(=O)NCCC(C)C)c1ccccc1 [Example 1-67] |
| 35 nM | 3.2 nM |  |  | CCNC(=O)C(CCOC(=O)c1ccc(NC(=O)c2ccccc2-c2ccc(C(F)(F)F)cc2)cc1)(C(=O)NCC)c1ccccc1 [Example 6-19] |
| 620 nM | 630 nM |  |  | CCOC(=O)C(COC(=O)Cc1ccc(NC(=O)c2ccccc2-c2ccc(C(F)(F)F)cc2)cc1)(Cc1ccccc1)C(=O)OCC [Example 1-26] |
| 60 nM | 4.97 nM |  |  | O=C(N[C@H]1CC[C@H](C(=O)OCCC2(C(=O)NCC(F)(F)F)c3ccccc3-c3ccccc32)CC1)c1ccccc1-c1ccc(C(F)(F)F)cc1 [Example 7, Trans-4-[(4′-trifluoromethylbiphenyl-2-carbonyl)amino]cyclohexanecarboxylic acid 2-[9-(2,2,2-trifluoroethylcarbamoyl)-9H-fluoren-9-yl]ethyl ester] |
| 13 nM | 2.1 nM |  |  | CCOC(=O)C(COC(=O)Cc1ccc(NC(=O)c2ccccc2-c2ccc(C(F)(F)F)cc2)c(OC)c1)(C(=O)OCC)c1ccccc1 [Example 3-4] |
| 8.4 nM | 5 nM |  |  | CC(C)NC(=O)C(COC(=O)Cc1ccc(NC(=O)c2ccccc2-c2ccc(C(F)(F)F)cc2)cc1)(C(=O)NC(C)C)c1ccccc1 [Example 1-25] |
|  |  | > 10000 nM | > 1000 nM | CCNC(=O)C(CO)(C(=O)NCC)c1ccccc1 |
| 270 nM | 1.6 nM |  |  | CCNC(=O)C(COC(=O)Cc1ccc(NC(=O)c2ccccc2-c2ccc(Cl)cc2)cc1)(C(=O)NCC)c1ccccc1 [Example 1-70] |
| 57 nM | 2.4 nM |  |  | CCNC(=O)C(CCOC(=O)Cc1cccc(NC(=O)c2ccccc2-c2ccc(C(F)(F)F)cc2)c1)(C(=O)NCC)c1ccccc1 [Example 5-4] |
| 210 nM | 20 nM |  |  | CCOC(=O)C(COC(=O)Cn1cnc2c(NC(=O)c3ccccc3-c3ccc(C(F)(F)F)cc3)cccc21)(C(=O)OCC)c1ccccc1 [Example 9-11] |
|  |  | > 10000 nM | > 1000 nM | COc1cc(CC(=O)O)ccc1NC(=O)c1ccccc1-c1ccc(C(F)(F)F)cc1 |

| Structure (SMILES) | IC50 (HepG2 cells; [2]) | IC50 [1, 3] | IC50 (HepG2 cells; [4]) | IC50 [1, 5] |
| --- | --- | --- | --- | --- |
| CCOC(=O)C(COC(=O)Cn1ccc2c(NC(=O)c3ccccc3-c3ccc(C(F)(F)F)cc3)cccc21)(C(=O)OCC)c1ccccc1 [Example 9, 2-Phenyl-2-(2-{4-[(4′-trifluoromethylbiphenyl-2-carbonyl)amino]indol-1-yl}acetoxymethyl)malonic acid diethyl ester] | 260 nM | 11 nM |  |  |
| CCOC(=O)C(COC(=O)Cc1ccc(N(C)C(=O)c2ccccc2-c2ccc(C(F)(F)F)cc2)cc1)(C(=O)OCC)c1ccccc1 [Example 1-4, 2-(2-{4-[Methyl-(4′-trifluoromethylbiphenyl-2-carbonyl)amino]phenyl}acetoxymethyl)-2-phenylmalonic acid diethyl ester] | 190 nM | 3.4 nM |  |  |
